Reference: patent US11718628B2, “SREBP inhibitors comprising a 6-membered central ring” (Capulus Therapeutics, LLC, priority 2018, dated 2023)

Tests used:
[1] = test system: HepG2 cells; experiment: Gene expression of HepG2 cells (quantitative PCR); assay type: cell-based; parameters: key to LSS gene expression / MVK gene expression / SREBP1 gene expression / SREBP2 gene expression / SCAP gene expression / SCD gene expression / MVD gene expression / ACACA gene expression / ACACB gene expression / ACLY gene expression / ACSS1 gene expression / ACSS2 gene expression / ELOVL6 gene expression / FASN gene expression / HMGCR gene expression: relative expression vs mock/vehicle (ΔΔCT, β-actin normalized); details: 500 nM, 48 hrs
Method: Gene Expression: The effect of selected compounds described herein on the gene expression of HepG2 cells was evaluated. HepG2 cells (P2) were seeded in 24 well plate (80,000 cells/well) for RNA extraction and in a 96 well plate (10,000 cells/well) for Cell Titer Glow (CTG). The media used was DMEM and contained 10% FBS. Each compound was evaluated at […] for 48 hours. Two biological replicates per experimental group were evaluated for RNA. For gene analysis, RNA was harvested with RNEasy kit and 20-100 ng used to synthesize cDNA with random primers. Quantitative PCR was performed on 1 pg to 100 ng cDNA for the following genes: ACACA, ACLY, FASN, LSS, PNPLA3. Gene expression levels were normalized with housekeeping gene, β-Actin, and relative expression levels determined using ΔΔCT method comparing treated to mock or vehicle treated cells as a baseline. “Total” gene expression refers to the average of the values of the 5 genes listed above.
The effect of Compound Z-725 on expression of the genes ACACA, ACACB, ACLY, ACSS1, ACSS2, ELOVL6, FASN, HMGCR, LSS, MVK, PNPLA3, SREBP1, SREBP2, SCAP, SCD, and MVD was evaluated, following the procedure described in Example 52.

[2] = In vivo pharmacokinetic properties in mice (IV and PO); parameters: species or system C57BL/6J mice; details: mouse, in vivo
How it was run: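 Male C57BL/6J mice received 10 mg/kg orally; plasma sampled by retro-orbital capillary at 0.25–24 h. IV dosing described at 2.00 mg/kg via tail vein, plasma sampled 0.083–24 h.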

[3] = Plasma and liver compound levels in mice after oral administration; assay type: in vivo
How it was run: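 Mice were dosed orally by gavage with compound in 0.5% methylcellulose (5% N-methyl pyrrolidone added when needed). Retro-orbital plasma and unperfused liver collected at 6 h or 24 h and stored at −80 °C for bioanalysis.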

SMILES: CC(C)(C)c1cc(-c2cncc(-c3ccc(C(=O)N4CCC(O)CC4)cc3Cl)c2)ccn1 [Compound Z-725]
- ACACA gene expression [1]: 0.4399
- ACACB gene expression [1]: 0.5472
- ACLY gene expression [1]: 0.3505
- ACSS1 gene expression [1]: 0.2838
- ACSS2 gene expression [1]: 0.4792
- ELOVL6 gene expression [1]: 0.4432
- FASN gene expression [1]: 0.2957
- HMGCR gene expression [1]: 0.09282
- LSS gene expression [1]: 0.2412
- MVD gene expression [1]: 0.1984
- MVK gene expression [1]: 0.05926
- PNPLA3 gene expression [1]: 0.09989
- SCAP gene expression [1]: 1.312
- SCD gene expression [1]: 0.2009
- SREBP1 gene expression [1]: 0.5489
- SREBP2 gene expression [1]: 0.786
- % F (Bioavailability of oral delivery) [2]: 58%
- Intravenous Delivery (IV) AUC0-last ([2]; iv, 2 mg/kg): 1900 ng·h/mL
- Intravenous Delivery (IV) CL ([2]; iv, 2 mg/kg): 17.5 mL/min/kg
- Intravenous Delivery (IV) T1/2 ([2]; iv, 2 mg/kg): 3.39 h
- Intravenous Delivery (IV) Vd ([2]; iv, 2 mg/kg): 5.13 L/kg
- Oral Administration (PO) AUC0-last ([2]; po, 10 mg/kg): 5400 ng·h/mL
- Oral Administration (PO) T1/2 ([2]; po, 10 mg/kg): 4.72 h
- Oral Administration (PO) Tmax ([2]; po, 10 mg/kg): 1 h
- Liver ng/mg (6 h) ([3]; 10 mpk): 100 to 1000 ng/mg
- Plasma ng/mL (6 h) ([3]; 10 mpk): <100 ng/mL
- Liver ng/mg 24 h ([3]; 10 mpk): 100 to 1000 ng/mg
- Plasma ng/mL (24 h) ([3]; 10 mpk): <100 ng/mL
- Liver ng/mg (6 h) ([3]; 30 mpk): 100 to 1000 ng/mg
- Plasma ng/mL (6 h) ([3]; 30 mpk): 100 to 1000 ng/mL
- Liver ng/mg 24 h ([3]; 30 mpk): <100 ng/mg
- Plasma ng/mL (24 h) ([3]; 30 mpk): <100 ng/mL
